In the OligoGym collection one finds 3 h FOB score data, which are given here for 26 substances.

HELM strings list units from the 5' end as sugar, base in round brackets, then linkage (d deoxyribose, r ribose, m 2'-O-methyl, p phosphodiester). Strings are as the collection lists them; they lack the last nucleoside at the 3' end of the tested compound. [moe] = 2'-O-(2-methoxyethyl) (MOE); [sp] = phosphorothioate linkage; [m5C] = 5-methylcytosine

This data set has as its target UBE3A-ATS. Put plainly: mouse, dose not given. Particulars: ASO.
As to “RNA1{[moe](T)[sp].[moe]([m5C])p.[moe]([m5C])p.[moe]([m5C])p.[moe](A)p.d(T)[sp].d(T)[sp].d([m5C])[sp].d(A)[sp].d(G)[sp].d([m5C])[sp].d(A)[sp].d([m5C])[sp].d(T)[sp].d(T)[sp].[moe](A)p.[moe](G)p.[moe](G)[sp].[moe](T)}$$$$ (last 3' nucleoside missing)”, the 3 h FOB score stood at 3 score 0-7. In turn, “RNA1{[moe](A)[sp].[moe](G)p.[moe](T)p.[moe](G)p.[moe](G)p.d(T)[sp].d(T)[sp].d(G)[sp].d([m5C])[sp].d([m5C])[sp].d(T)[sp].d(T)[sp].d(A)[sp].d(G)[sp].d(T)[sp].[moe](A)p.[moe](T)p.[moe](T)[sp].[moe](A)}$$$$ (last 3' nucleoside missing)” had a 3 h FOB score of 6 score 0-7.

Substance “RNA1{[moe](T)[sp].[moe](T)p.[moe](G)p.[moe](G)p.d(T)[sp].d([m5C])[sp].d(A)[sp].d(T)[sp].d([m5C])[sp].d(T)[sp].d([m5C])[sp].d(G)[sp].d(G)[sp].d(G)[sp].[moe](T)p.[moe](A)p.[moe](T)p.[moe](A)[sp].[moe](T)}$$$$ (last 3' nucleoside missing)” displayed a 3 h FOB score of 4 score 0-7.

“RNA1{[moe]([m5C])[sp].[moe](A)p.[moe](G)p.[moe](A)p.[moe](T)p.d(T)[sp].d([m5C])[sp].d([m5C])[sp].d(T)[sp].d(A)[sp].d(A)[sp].d(A)[sp].d(T)[sp].d(A)[sp].d([m5C])[sp].[moe](G)p.[moe]([m5C])p.[moe](A)[sp].[moe]([m5C])}$$$$ (last 3' nucleoside missing)” had a 3 h FOB score of 0 score 0-7.

“RNA1{[moe](A)[sp].[moe](T)p.[moe](T)p.[moe](G)p.[moe](G)p.d(T)[sp].d([m5C])[sp].d(A)[sp].d(T)[sp].d([m5C])[sp].d(T)[sp].d([m5C])[sp].d(G)[sp].d(G)[sp].d(G)[sp].[moe](T)p.[moe](A)p.[moe](T)[sp].[moe](A)}$$$$ (last 3' nucleoside missing)” registered a 3 h FOB score of 2.8 score 0-7. For “RNA1{[moe](T)[sp].[moe](G)p.[moe](T)p.[moe]([m5C])p.[moe](T)p.d([m5C])[sp].d(T)[sp].d(A)[sp].d(A)[sp].d(T)[sp].d([m5C])[sp].d([m5C])[sp].d(T)[sp].d(A)[sp].d(T)[sp].[moe](T)p.[moe]([m5C])p.[moe]([m5C])[sp].[moe](A)}$$$$ (last 3' nucleoside missing)”, the 3 h FOB score was determined as 0 score 0-7.

On to “RNA1{[moe]([m5C])[sp].[moe](G)p.[moe]([m5C])p.[moe](A)p.[moe](A)p.[moe](T)[sp].d(G)[sp].d(T)[sp].d(A)[sp].d(T)[sp].d([m5C])[sp].d(A)[sp].d(G)[sp].d(G)[sp].[moe]([m5C])p.[moe](A)[sp].[moe](A)}$$$$ (last 3' nucleoside missing)”, for which the 3 h FOB score came out at 3 score 0-7. Consider “RNA1{[moe](A)[sp].[moe]([m5C])p.[moe](T)p.[moe](G)p.[moe]([m5C])p.d(T)[sp].d(T)[sp].d([m5C])[sp].d(A)[sp].d([m5C])[sp].d([m5C])[sp].d(A)[sp].d(T)[sp].d(T)[sp].d(T)[sp].[moe](T)p.[moe](G)p.[moe](A)[sp].[moe]([m5C])}$$$$ (last 3' nucleoside missing)”, for which the 3 h FOB score was found to be 1.7 score 0-7.

“RNA1{[moe](G)[sp].[moe]([m5C])p.[moe](T)p.[moe](A)p.[moe](T)p.d([m5C])[sp].d(T)[sp].d(G)[sp].d(T)[sp].d(A)[sp].d([m5C])[sp].d(A)[sp].d(A)[sp].d(A)[sp].d(A)[sp].[moe](T)p.[moe](G)p.[moe](G)[sp].[moe](A)}$$$$ (last 3' nucleoside missing)” displayed a 3 h FOB score of 0 score 0-7. “RNA1{[moe](T)[sp].[moe](G)p.[moe]([m5C])p.[moe]([m5C])p.[moe](T)p.d(T)[sp].d(T)[sp].d([m5C])[sp].d(T)[sp].d(A)[sp].d(T)[sp].d(T)[sp].d(T)[sp].d([m5C])[sp].d(A)[sp].[moe](G)p.[moe](A)p.[moe]([m5C])[sp].[moe]([m5C])}$$$$ (last 3' nucleoside missing)” showed a 3 h FOB score of 2.7 score 0-7. Consider “RNA1{[moe]([m5C])[sp].[moe](G)p.[moe]([m5C])p.[moe](A)p.[moe](A)p.d(T)[sp].d(G)[sp].d(T)[sp].d(A)[sp].d(T)[sp].d([m5C])[sp].d(A)[sp].d(G)[sp].d(G)[sp].d([m5C])[sp].[moe](A)p.[moe](A)p.[moe]([m5C])[sp].[moe](A)}$$$$ (last 3' nucleoside missing)”, for which the 3 h FOB score turned out to be 4 score 0-7. Regarding “RNA1{[moe](T)[sp].[moe]([m5C])p.[moe](A)p.[moe]([m5C])p.[moe](A)p.d(T)[sp].d(T)[sp].d(A)[sp].d([m5C])[sp].d([m5C])[sp].d([m5C])[sp].d(A)[sp].d(T)[sp].d([m5C])[sp].d([m5C])[sp].[moe](G)p.[moe](T)p.[moe](T)[sp].[moe]([m5C])}$$$$ (last 3' nucleoside missing)”, the 3 h FOB score was 0 score 0-7. Regarding “RNA1{[moe](T)[sp].[moe](T)p.[moe](A)p.[moe](G)p.[moe](T)p.d(G)[sp].d(T)[sp].d([m5C])[sp].d(A)[sp].d(T)[sp].d(A)[sp].d(T)[sp].d(G)[sp].d(T)[sp].d(A)[sp].[moe](G)p.[moe]([m5C])p.[moe](A)[sp].[moe](A)}$$$$ (last 3' nucleoside missing)”, the 3 h FOB score is 1 score 0-7. “RNA1{[moe](T)[sp].[moe](G)p.[moe](T)p.[moe](G)p.d([m5C])[sp].d(A)[sp].d(T)[sp].d(A)[sp].d([m5C])[sp].d([m5C])[sp].d([m5C])[sp].d(A)[sp].d(G)[sp].d(G)[sp].[moe](G)p.[moe](T)p.[moe](A)p.[moe](G)[sp].[moe](G)}$$$$ (last 3' nucleoside missing)” gave a 3 h FOB score of 1 score 0-7. As for “RNA1{[moe](G)[sp].[moe]([m5C])p.[moe](A)p.[moe]([m5C])p.[moe](T)p.d(T)[sp].d(A)[sp].d(A)[sp].d(A)[sp].d(T)[sp].d(T)[sp].d(T)[sp].d(A)[sp].d(T)[sp].d([m5C])[sp].[moe](A)p.[moe](G)p.[moe](T)[sp].[moe](T)}$$$$ (last 3' nucleoside missing)”, the 3 h FOB score came out at 3 score 0-7.

Consider “RNA1{[moe](T)[sp].[moe](G)p.[moe](G)p.[moe](T)p.[moe](A)p.d(T)[sp].d(T)[sp].d(G)[sp].d(A)[sp].d([m5C])[sp].d(A)[sp].d([m5C])[sp].d([m5C])[sp].d(T)[sp].d([m5C])[sp].[moe]([m5C])p.[moe](A)p.[moe](A)[sp].[moe]([m5C])}$$$$ (last 3' nucleoside missing)”, for which the 3 h FOB score came to 0.3 score 0-7. For “RNA1{[moe]([m5C])[sp].[moe](T)p.[moe]([m5C])p.[moe](A)[sp].d(G)[sp].d(T)[sp].d(T)[sp].d(A)[sp].d(G)[sp].d(G)[sp].d(T)[sp].d(T)[sp].[moe](A)p.[moe](G)p.[moe](T)p.[moe](G)[sp].[moe]([m5C])}$$$$ (last 3' nucleoside missing)”, the 3 h FOB score was found to be 5.3 score 0-7. “RNA1{[moe](T)[sp].[moe](T)p.[moe](T)p.[moe](A)p.[moe](T)p.d(A)[sp].d(G)[sp].d(G)[sp].d(G)[sp].d(T)[sp].d(G)[sp].d(G)[sp].d(T)[sp].d(T)[sp].d(G)[sp].[moe](G)p.[moe](T)p.[moe](T)[sp].[moe]([m5C])}$$$$ (last 3' nucleoside missing)” showed a 3 h FOB score of 6 score 0-7. For “RNA1{[moe](G)[sp].[moe](T)p.[moe]([m5C])p.[moe](A)p.[moe](G)p.d(A)[sp].d([m5C])[sp].d(T)[sp].d(T)[sp].d(A)[sp].d(T)[sp].d(T)[sp].d(G)[sp].d(A)[sp].d(G)[sp].[moe](G)p.[moe](A)p.[moe](T)[sp].[moe](G)}$$$$ (last 3' nucleoside missing)” the value was 4 score 0-7. For the substance “RNA1{[moe]([m5C])[sp].[moe](A)p.[moe]([m5C])p.[moe](T)p.[moe]([m5C])p.d(A)[sp].d(T)[sp].d(T)[sp].d(T)[sp].d(T)[sp].d(G)[sp].d(T)[sp].d(T)[sp].d([m5C])[sp].d(A)[sp].[moe](G)p.[moe]([m5C])p.[moe](T)[sp].[moe](T)}$$$$ (last 3' nucleoside missing)”, the 3 h FOB score came out at 3 score 0-7. For the substance “RNA1{[moe](G)[sp].[moe](T)p.[moe](G)p.[moe](T)p.[moe](G)p.[moe](T)p.d(T)[sp].d(T)[sp].d(T)[sp].d(T)[sp].d([m5C])[sp].d([m5C])[sp].d(A)[sp].d(T)[sp].d(T)[sp].d(T)[sp].[moe](T)p.[moe](T)[sp].[moe]([m5C])}$$$$ (last 3' nucleoside missing)”, the 3 h FOB score was 0 score 0-7. The figure for “RNA1{[moe](G)[sp].[moe](A)p.[moe](G)p.[moe]([m5C])p.[moe](T)p.d(A)[sp].d(T)[sp].d([m5C])[sp].d(T)[sp].d(G)[sp].d(T)[sp].d(A)[sp].d([m5C])[sp].d(A)[sp].d(A)[sp].[moe](A)p.[moe](A)p.[moe](T)[sp].[moe](G)}$$$$ (last 3' nucleoside missing)” is 6.7 score 0-7.

Turning to “RNA1{[moe](T)[sp].[moe](G)p.[moe](A)p.[moe](T)p.[moe]([m5C])[sp].d(A)[sp].d([m5C])[sp].d(A)[sp].d(T)[sp].d(T)[sp].d(A)[sp].d([m5C])[sp].d([m5C])[sp].[moe]([m5C])p.[moe](A)p.[moe](T)[sp].[moe]([m5C])}$$$$ (last 3' nucleoside missing)”, the 3 h FOB score came to 1 score 0-7. In the case of “RNA1{[moe](T)[sp].[moe](G)p.[moe]([m5C])p.[moe](T)p.d(T)[sp].d([m5C])[sp].d(A)[sp].d([m5C])[sp].d([m5C])[sp].d(A)[sp].d(T)[sp].d(T)[sp].d(T)[sp].d(T)[sp].[moe](G)p.[moe](A)p.[moe]([m5C])p.[moe]([m5C])[sp].[moe](T)}$$$$ (last 3' nucleoside missing)”, the 3 h FOB score was 0 score 0-7.

For “RNA1{[moe]([m5C])[sp].[moe](T)p.[moe](A)p.[moe](G)p.[moe](G)p.d([m5C])[sp].d(A)[sp].d(G)[sp].d([m5C])[sp].d(T)[sp].d([m5C])[sp].d(T)[sp].d(T)[sp].d(T)[sp].d(G)[sp].[moe](T)p.[moe](A)p.[moe](G)[sp].[moe](G)}$$$$ (last 3' nucleoside missing)”, the 3 h FOB score is 0.3 score 0-7.

On to “RNA1{[moe]([m5C])[sp].[moe](A)p.[moe](G)p.[moe](T)p.[moe](T)p.[moe](A)[sp].d(G)[sp].d(G)[sp].d(T)[sp].d(T)[sp].d(A)[sp].d(G)[sp].d(T)[sp].d(G)[sp].[moe]([m5C])p.[moe](A)[sp].[moe]([m5C])}$$$$ (last 3' nucleoside missing)”, for which the 3 h FOB score is 3.7 score 0-7.
